Assay results from US20130131161A1, “METHODS AND COMPOSITIONS FOR CARDIOVASCULAR DISEASES AND CONDITIONS” (priority 2009, published 2013).

Test system: Human umbilical vein endothelial cells (HUVECs)
Test: eNOS activity analysis: NO, ONOO− and NO/ONOO− release from HUVECs of 50 genotyped donors in response to LA-419 (Example 2)
Assay type: cell-based
Conditions: for Fold difference NO (mean ± sd) / Fold difference NO/ONOO− (mean ± sd) / Fold difference ONOO− (mean ± sd): (LA-419 1 μM)/(control)
Experimental: Concurrent measurements of NO and ONOO^− were carried out with tandem electrochemical nanosensors combined into one working unit with a total diameter of 200-500 nm (FIG. 1). Their design was based on previously developed and well-characterized chemically modified carbon-fiber technology (Malinski and Taha, 1992; Lvovich and Scheeline, 1997). Each of the nanosensors was made by depositing a sensing material on the tip of a carbon fiber (length 4-5 μm, diameter 0.2-0.5 μm). The fibers were sealed with nonconductive epoxy and electrically connected to copper wires with conductive silver epoxy. A conductive film of polymeric nickel (II) tetrakis(3-methoxy-4-hydroxyphenyl)porphyrin for the NO-sensor and polymeric film of Mn (III) [2.2]paracyclophanylporphyrin was used for the ONOO^−-sensor.
A module of NO/ONOO^− nanosensors (diameter 1-2 μm) with a platinum wire (0.1 mm) counter electrode and saturated calomel reference electrode (SCE) were applied. Differential pulse voltammetry (DPV) and amperometry were performed with a computer-based Gamry VFP600 multichannel potentiostat. DPV was used to measure the basal NO and ONOO^− concentrations, and amperometry was used to measure changes in NO and ONOO^− concentrations from its basal level with time. The DPV current at the peak potential characteristic for NO oxidation (0.65 V) and ONOO^− reduction (−0.45 V) was directly proportional to the local concentrations of these compounds in the immediate vicinity of the sensor. Linear calibration curves (current vs. concentration) were constructed for each sensor from 10 nM to 3 μM before and after measurements with aliquots of NO and ONOO^− standard solutions, respectively. The detection limit of the sensors was 1.0 nM.
The quantification of each analyte (concentration in nM) was performed using a maximum current from amperograms and standard calibration curves. A reproducibility of measurements with nanosensors is relatively high (between 5-12%). […] The sensors were slowly raised 5±2 μm from the surface of a single endothelial cell. The eNOS agonist, calcium ionophore A23187 (CaI) as well as the different drugs were then added to the surrounding media at the cell surface with a nanoinjector that was also positioned by a computer controlled-micromanipulator.
This example describes the genotype-specific response of the three major eNOS variants to 1 μM and 5 μM concentrations of LA-419. The three major genetic polymorphisms studied were the Glu298Asp variant (E298D or 894G→T) in exon 7 of […], the −786T→C variant in the promoter region, and the intron 4 polymorphism (VNTR). All of these variants have possible effects on the cardiovascular system and endothelial dysfunction. For this study, human umbilical vein endothelial cells (HUVECs) from 50 donors between 18 and 32 years of age were used.
For the analysis several analysis techniques were employed. First, the effect of genotype on NO and ONOO^− release was explored within the different concentrations of LA-419 (control, 1 μM, 5 μM), calculated as the average peak release (nmols/L) of NO, ONOO^−, and NO/ONOO^−. The effect of genotype on the net increase in NO, ONOO^−, and NO/ONOO^− for LA-419 (1 μM and 5 μM) as compared to control was also measured. In addition, an analysis was done on the effect of genotype on the % change in NO, ONOO^−, and NO/ONOO^− production for LA-419 (1 μM and 5 μM), calculated as:
% Change=[(avg. LA-419−avg. control)/(avg. control)]*100
Finally, an evaluation was undertaken concerning the effect of genotype on the production of NO, ONOO^−, and NO/ONOO^− as the fold difference of control for LA-419 (1 μM and 5 μM), calculated as:
Fold Difference=(avg. LA-419)/(avg. control)
Within each calculation technique the results were compared for statistical significance using a non-parametric ANOVA Kruskal-Wallace test or a non-parametric Mann-Whitney U test. Statistical significance was set at a p-value <0.05 in a two-tailed distribution. […]

[1] = 1 μM LA-419, Intron 4 variant b/a, a/a, c/c (n=14)
[2] = 1 μM LA-419, Intron 4 variant b/b (n=31)
[3] = 5 μM LA-419, Intron 4 variant b/a, a/a, c/c (n=14)
[4] = 5 μM LA-419, Intron 4 variant b/b (n=31)
[5] = Combination of all G894T + T-786C genotypes but G/G + T/T, n=31
[6] = Combination of all G894T + T-786C genotypes but T/T + C/C, n=46

## CC(=O)SC1COC2C(O[N+](=O)[O-])COC12 (stereo not drawn) [LA-419, S-(6-Nitro-oxi-hexahydro-furo[3,2-b]furan-3-1-il)thioacetate]
[1]
  NO % Change (mean ± sd): 11.76 (29.57) %
  NO/ONOO− % Change (mean ± sd): 28.01 (62.22) %
  ONOO− % Change (mean ± sd): −2.68 (29.78) %
[2]
  NO % Change (mean ± sd): 13.46 (23.13) %
  NO/ONOO− % Change (mean ± sd): 43.27 (71.09) %
  ONOO− % Change (mean ± sd): −10.24 (27.17) %
[3]
  NO % Change (mean ± sd): 16.16 (6.09) %
  NO/ONOO− % Change (mean ± sd): 44.37 (12.85) %
  ONOO− % Change (mean ± sd): −19.27 (5.27) %
[4]
  NO % Change (mean ± sd): 13.52 (6.80) %
  NO/ONOO− % Change (mean ± sd): 42.24 (17.73) %
  ONOO− % Change (mean ± sd): −19.19 (7.76) %
[5]
  Fold difference NO (mean ± sd): 1.14 (0.26)
  Fold difference NO/ONOO− (mean ± sd): 1.41 (0.71)
  Fold difference ONOO− (mean ± sd): 0.92 (0.30)
[6]
  Fold difference NO (mean ± sd): 1.13 (0.25)
  Fold difference NO/ONOO− (mean ± sd): 1.37 (0.68)
  Fold difference ONOO− (mean ± sd): 0.93 (0.28)
G894T + T-786C G/G + T/C, n=8
  Fold difference NO (mean ± sd): 1.03 (0.17)
  Fold difference NO/ONOO− (mean ± sd): 1.07 (0.37)
  Fold difference ONOO− (mean ± sd): 1.07 (0.36)
G894T + T-786C G/G + T/T, n=18
  Fold difference NO (mean ± sd): 1.10 (0.20)
  Fold difference NO/ONOO− (mean ± sd): 1.28 (0.57)
  Fold difference ONOO− (mean ± sd): 0.94 (0.23)
G894T + T-786C G/T + C/C, n=1
  Fold difference NO (mean ± sd): 0.86 (0)
  Fold difference NO/ONOO− (mean ± sd): 0.49 (0)
  Fold difference ONOO− (mean ± sd): 1.77 (0)
G894T + T-786C G/T + T/C, n=13
  Fold difference NO (mean ± sd): 1.28 (0.33)
  Fold difference NO/ONOO− (mean ± sd): 1.70 (0.81)
  Fold difference ONOO− (mean ± sd): 0.81 (0.15)
G894T + T-786C G/T + T/T, n=4
  Fold difference NO (mean ± sd): 1.08 (0.03)
  Fold difference NO/ONOO− (mean ± sd): 1.12 (0.18)
  Fold difference ONOO− (mean ± sd): 0.98 (0.18)
G894T + T-786C T/T + C/C, n=1
  Fold difference NO (mean ± sd): 1.02 (0)
  Fold difference NO/ONOO− (mean ± sd): 1.23 (0)
  Fold difference ONOO− (mean ± sd): 0.83 (0)
G894T + T-786C T/T + C/C, n=3
  Fold difference NO (mean ± sd): 1.07 (0.06)
  Fold difference NO/ONOO− (mean ± sd): 1.20 (0.04)
  Fold difference ONOO− (mean ± sd): 0.89 (0.06)
G894T + T-786C T/T + T/C, n=2
  Fold difference NO (mean ± sd): 1.11 (0.36)
  Fold difference NO/ONOO− (mean ± sd): 2.25 (1.17)
  Fold difference ONOO− (mean ± sd): 0.52 (0.11)
G894T G/G & G/T, n=44
  Fold difference NO (mean ± sd): 1.13 (0.25)
  Fold difference NO/ONOO− (mean ± sd): 1.34 (0.64)
  Fold difference ONOO− (mean ± sd): 0.95 (0.27)
G894T G/G, n=26
  Fold difference NO (mean ± sd): 1.08 (0.19)
  Fold difference NO/ONOO− (mean ± sd): 1.22 (0.52)
  Fold difference ONOO− (mean ± sd): 0.98 (0.27)
G894T G/T & T/T, n=23
  Fold difference NO (mean ± sd): 1.18 (0.28)
  Fold difference NO/ONOO− (mean ± sd): 1.53 (0.77)
  Fold difference ONOO− (mean ± sd): 0.87 (0.26)
G894T G/T, n=18
  Fold difference NO (mean ± sd): 1.21 (0.30)
  Fold difference NO/ONOO− (mean ± sd): 1.50 (0.77)
  Fold difference ONOO− (mean ± sd): 0.90 (0.27)
G894T T/T, n=5
  Fold difference NO/ONOO− (mean ± sd): 1.62 (0.82)
  Fold difference ONOO− (mean ± sd): 0.75 (0.21)
Intron 4 a/a, n=1
  Fold difference NO (mean ± sd): 1.09 (0)
  Fold difference NO/ONOO− (mean ± sd): 1.23 (0)
  Fold difference ONOO− (mean ± sd): 0.89 (0)
Intron 4 a/a, n=3
  Fold difference NO (mean ± sd): 0.95 (0.25)
  Fold difference NO/ONOO− (mean ± sd): 0.96 (0.45)
  Fold difference ONOO− (mean ± sd): 1.10 (0.34)
Intron 4 b/a, a/a, c/c, n=14
  Fold difference NO (mean ± sd): 1.13 (0.23)
  Fold difference NO/ONOO− (mean ± sd): 1.28 (0.62)
  Fold difference ONOO− (mean ± sd): 0.97 (0.30)
Intron 4 b/a, n=10
  Fold difference NO (mean ± sd): 1.21 (0.28)
  Fold difference NO/ONOO− (mean ± sd): 1.43 (0.65)
  Fold difference ONOO− (mean ± sd): 0.93 (0.31)
Intron 4 b/b, b/a, c/c, n=42
  Fold difference NO (mean ± sd): 0.95 (0.25)
  Fold difference NO/ONOO− (mean ± sd): 1.42 (0.69)
  Fold difference ONOO− (mean ± sd): 0.91 (0.27)
Intron 4 b/b, n=31
  Fold difference NO (mean ± sd): 1.13 (0.23)
  Fold difference NO/ONOO− (mean ± sd): 1.43 (0.71)
  Fold difference ONOO− (mean ± sd): 0.90 (0.27)
Intron 4 c/c, n=1
  Fold difference NO (mean ± sd): 0.73 (0)
  Fold difference NO/ONOO− (mean ± sd): 0.74 (0)
  Fold difference ONOO− (mean ± sd): 0.99 (0)
T-786C C/C, n=1
  Fold difference NO (mean ± sd): 1.02 (0)
  Fold difference NO/ONOO− (mean ± sd): 1.23 (0)
  Fold difference ONOO− (mean ± sd): 0.83 (0)
T-786C C/C, n=4
  Fold difference NO (mean ± sd): 1.02 (0.12)
  Fold difference NO/ONOO− (mean ± sd): 1.03 (0.36)
